Structures can show the parent of a compound that is named as a salt. Where two headings read alike, the source gives them in different places.
How the values were obtained:
[1] = intravenous; of the eight patients enrolled; cited from earlier work
[2] = 3 intravenous infusions, 3-5 days interval; cited from earlier work
[3] = PK study of liposomal ketamine formulation and free ketamine after single subcutaneous injection
Method: Blood samples were collected at 15 min, 0.5, 1, 2, 4, 6, 8, 24 and 48 hours post-injection.

[4] = oral administration; cited from earlier work
[5] = three infusions per week; eight of nine subjects; cited from earlier work
[6] = cited from earlier work
[7] = free ketamine, intraperitoneal injection in rat; cited from earlier work
[8] = free ketamine IV infusion 10 mg/kg/min over 5 min (50.0 mg/kg), Wistar rats; cited from earlier work
[9] = cited from earlier work; remark: listed apart in the source
[10] = female, Sprague-Dawley, rat, plasma, sc, 5 mg/kg
[11] = free ketamine SC 5.0 mg/kg, rat plasma

Row | Structure (SMILES) | patients remitted to the nondepressed range (MADRS score 10) [1] | patients with a 50% or greater reduction in MADRS scores [1] | persistence of clinical improvement following the final infusion [2] | AUC(0-inf) [3, 10] | AUC(0-t) [3, 10] | Cmax [3, 10] | half-life [3, 10] | AUC0-inf/dose [3, 11] | AUC0-t/dose [3, 11] | Cmax/dose [3, 11] | time post injection at which ketamine was undetectable in plasma ([3]; free ketamine SC, FIG. 1) | patients showing improvement of mood symptoms [4] | time to relapse after the final intravenous infusion [5] | patients in whom the therapeutic response was maintained ([6]; for a week after a single intravenous infusion) | patients with >50% decrease in Hamilton Depression Rating Scale (HDRS) score ([6]; one day after a single intravenous infusion, 17 patients) | half-life [7] | t1/2 [8] | oral bioavailability [9]
1 | CN1[C@@H]2C[C@@H](OC(=O)[C@H](CO)c3ccccc3)C[C@H]1[C@@H]1O[C@@H]12 [Free Scopolamine, scopolamine hydrobromide trihydrate] | 3 | five | more than 2 weeks | – | – | – | – | – | – | – | – | – | – | – | – | – | – | –
2 | CNC1(c2ccccc2Cl)CCCCC1=O (stereo not drawn) [Free Ketamine, ketamine hydrochloride] | – | – | – | 314 ng·h/mL | 305 ng·h/mL | 190 ng/mL | 46.2 min | 62.9 | 61.0 | 38.0 | 4 h | approximately 30% | ≤ 19 days | 35% | 71% | 78 min | 37.8 min | 17%
